Like-named read-outs stand apart in the source and are kept apart here.
Legend:
[1] = tested on: symmetric di-methyl arginine in Z-138 cells; assay: Z-138 Methylation Assay (In Cell Western for symmetric di-methyl arginine and DNA content); assay type: cell-based; conditions: read-out: ICW EC50
Description: [formula] Where top and bottom are the normally allowed to float, but may be fixed at 100 or 0 respectively in a 3-parameter fit. The Hill Coefficient normally allowed to float but may also be fixed at 1 in a 3-parameter fit. Y is the % inhibition and X is the compound concentration.
RPMI/Glutamax medium, penicillin-streptomycin, heat inactivated fetal bovine serum, and D-PBS were purchased from Life Technologies, Grand Island, N.Y., USA. Odyssey blocking buffer, 800CW goat anti-rabbit IgG (H+L) antibody, and Licor Odyssey infrared scanner were purchased from Licor Biosciences, Lincoln, Nebr., USA. Symmetric di-methyl arginine antibody was purchased from EMD Millipore, Billerica, Mass., USA. 16% Paraformaldehyde was purchased from Electron Microscopy Sciences, Hatfield, Pa., USA.
Cell Treatment, in Cell Western (ICW) for Detection of Symmetric Di-Methyl Arginine and DNA Content.
Z-138 cells were seeded in assay medium at a concentration of 50,000 cells per mL to a 384-well cell culture plate with 50 μL per well. Compound (100 nL) from 384 well source plates was added directly to 384 well cell plate. Plates were incubated at 37° C., 5% CO2 for 96 hours. […] Plates were incubated at room temperature for 30 minutes then incubated at 37° C., 5% CO2 for 5 hours. After the incubation, 40 μL per well of 8% paraformaldehyde in PBS (16% paraformaldahyde was diluted to 8% in PBS) was added to each plate and incubated for 30 minutes. […] Next 30 μL per well of Odyssey blocking buffer were added to each plate and incubated 1 hour at room temperature. […]
First, the ratio for each well was determined by:
Each plate included fourteen control wells of DMSO only treatment (minimum inhibition) as well as fourteen control wells for maximum inhibition treated with 3 μM of a reference compound (Background wells). The average of the ratio values for each control type was calculated and used to determine the percent inhibition for each test well in the plate. […] Percent inhibition was determined and IC50 curves were generated using triplicate wells per concentration of compound.

PRMT5/MEP50 = PRMT5/MEP50 (Homo sapiens (Human), UniProt O14744); assay: PRMT5 Biochemical Assay (PRMT5/MEP50 enzyme assay on peptide substrate, 3H-SAM Flashplate)
PRMT5/MEP50, sequence (O14744 other isoform, or with tags, fused parts or gaps): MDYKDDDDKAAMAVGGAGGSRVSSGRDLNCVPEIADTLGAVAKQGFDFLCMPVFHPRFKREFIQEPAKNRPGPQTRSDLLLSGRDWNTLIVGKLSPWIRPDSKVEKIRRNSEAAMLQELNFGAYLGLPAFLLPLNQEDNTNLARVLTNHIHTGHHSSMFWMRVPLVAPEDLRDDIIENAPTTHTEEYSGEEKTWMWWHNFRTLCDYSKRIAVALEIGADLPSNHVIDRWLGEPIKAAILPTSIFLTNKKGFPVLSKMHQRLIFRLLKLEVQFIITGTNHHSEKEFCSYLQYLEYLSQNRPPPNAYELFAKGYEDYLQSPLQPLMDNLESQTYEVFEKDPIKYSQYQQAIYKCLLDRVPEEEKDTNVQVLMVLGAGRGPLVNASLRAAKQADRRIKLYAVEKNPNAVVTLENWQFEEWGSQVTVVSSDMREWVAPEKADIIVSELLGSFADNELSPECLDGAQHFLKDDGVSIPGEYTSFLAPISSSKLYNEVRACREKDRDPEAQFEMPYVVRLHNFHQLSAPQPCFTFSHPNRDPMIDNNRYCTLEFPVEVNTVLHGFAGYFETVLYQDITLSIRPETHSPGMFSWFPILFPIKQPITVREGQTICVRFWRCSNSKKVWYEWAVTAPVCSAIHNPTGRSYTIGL
PRMT5/MEP50, sequence (Q9BQA1 other isoform, or with tags, fused parts or gaps partner): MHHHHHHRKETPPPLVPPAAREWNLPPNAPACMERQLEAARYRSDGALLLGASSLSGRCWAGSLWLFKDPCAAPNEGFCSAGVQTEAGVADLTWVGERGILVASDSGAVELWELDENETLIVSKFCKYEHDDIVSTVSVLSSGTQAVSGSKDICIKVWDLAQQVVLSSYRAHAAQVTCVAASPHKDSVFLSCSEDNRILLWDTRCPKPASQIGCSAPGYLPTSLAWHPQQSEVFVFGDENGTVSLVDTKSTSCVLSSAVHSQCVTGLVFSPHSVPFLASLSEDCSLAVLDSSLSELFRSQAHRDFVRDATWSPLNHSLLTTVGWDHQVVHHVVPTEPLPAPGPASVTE

Z-138 cell line = assay: Z-138 Proliferation Assay (Cell Titer Glo, 5 days); assay type: cell-based; conditions: Z-138 cells
Description: RPMI/Glutamax medium, penicillin-streptomycin, heat inactivated fetal bovine serum were purchased from Life Technologies, Grand Island, N.Y., USA. V-bottom polypropylene 384-well plates were purchased from Greiner Bio-One, Monroe, N.C., USA. Cell culture 384-well white opaque plates were purchased from Perkin Elmer, Waltham, Mass., USA. Cell-Titer Glo® was purchased from Promega Corporation, Madison, Wis., USA. SpectraMax M5 plate reader was purchased from Molecular Devices LLC, Sunnyvale, Calif., USA.
A compound source plate was prepared by performing triplicate nine-point 3-fold serial dilutions in DMSO, beginning at 10 mM (final top concentration of compound in the assay was 20 μM and the DMSO was 0.2%). A 100 nL aliquot from the compound stock plate was added to its respective well in the cell plate. […] After addition of compounds, assay plates were incubated for 5 days at 37° C., 5% CO2, relative humidity >90%. […] Luminescence was read in the SpectraMax M5 microplate reader. The concentration of compound inhibiting cell viability by 50% was determined using a 4-parametric fit of the normalized dose response curves.

[2] = PRMT5/MEP50 biochemical assay, read-out: Biochemical IC50

SMILES	IC50 (PRMT5/MEP50; [2]) [nM]	also measured
CN1CCC(Oc2cc(C(=O)NC[C@H](O)CN3CCc4ccccc4C3)ncn2)CC1 [Compound 206]	< 100	EC50 (Z-138 cell line; Homo sapiens, Z-138, 120 h): 1000 to 10000 nM; EC50 ([1]; Homo sapiens): 101 to 1000 nM
CS(=O)(=O)N1CCC(Oc2cc(C(=O)NC[C@H](O)CN3CCc4ccccc4C3)ccn2)CC1 [Compound 204]	< 100	–
O=C(NCC(O)CN1CCc2ccccc2C1)c1cccc(NCCN2CCOCC2)c1 (stereo not shown) [Compound 61]	101 to 1000	–
CS(=O)(=O)N1CCC(Oc2ccc(C(=O)NCC(O)CN3CCc4ccccc4C3)cc2)CC1 (stereo not shown) [Compound 108]	< 100	–
COc1cc(CN2CCN(C)CC2)cc(C(=O)NCC(O)CN2CCc3ccccc3C2)c1 (stereo not shown) [Compound 160]	< 100	–
O=C(NC[C@H](O)CN1CCc2ccccc2C1)c1cncc(NC2CCN(CC(F)(F)F)CC2)c1 [Compound 300]	< 100	–
CC(C)(C)c1cc(Nc2cc(C(=O)NC[C@H](O)CN3CCc4ccccc4C3)ccn2)n[nH]1 [Compound 326]	< 100	–
CC(=O)N1CCC(Nc2cccc(C(=O)NCC(O)CN3CCc4ccccc4C3)c2)CC1 (stereo not shown) [Compound 124]	< 100	–
O=C(NCC(O)CN1CCc2ccccc2C1)c1cc(F)cc(NC2CCOCC2)c1 (stereo not shown) [Compound 78]	< 100	–
O=C(NC[C@H](O)CN1CCc2ccccc2C1)c1ccnc(NC2CCCCC2)c1 [Compound 335]	< 100	–
O=C(NC[C@@H](O)CN1CCc2ccccc2C1)c1cc(NC2CCOCC2)ncn1 [Compound 185]	< 100	–
CN1CCC(Oc2cncc(C(=O)NC[C@H](O)CN3CCc4ccccc4C3)c2)CC1 [Compound 288]	< 100	–
O=C(NC[C@H](O)CN1CCc2ccccc2C1)c1ccnc(NCC2CCCNC2)c1 (stereo partly shown) [Compound 236]	< 100	–
O=C(NCC(O)CN1CCc2ccccc2C1)c1cccc(CN2CCN(CC(F)(F)F)CC2)c1 (stereo not shown) [Compound 92]	< 100	–
O=C(NC[C@@H](O)CN1CCc2ccccc2C1)Oc1ccccc1 [Compound 11, (R)-phenyl (3-(3,4-dihydroisoquinolin-2(1H)-yl)-2-hydroxypropyl)carbamate]	< 100	–
O=C(NC[C@H](O)CN1CCc2ccccc2C1)c1ccnc(NCC2CCNCC2)c1 [Compound 235]	< 100	–
CN1CCC(Nc2cc(C(=O)NC[C@H](O)CN3CCc4ccccc4C3)ncn2)C1 (stereo partly shown) [Compound 181]	< 100	–
CN(C)C(=O)CN1CCN(Cc2cccc(C(=O)NCC(O)CN3CCc4ccccc4C3)c2)CC1 (stereo not shown) [Compound 174]	< 100	–
CS(=O)(=O)N1CC[C@@H](Nc2cccc(C(=O)NC[C@H](O)CN3CCc4ccccc4C3)c2)C1 [Compound 267]	< 100	–
CN1CCCC(CNc2cc(C(=O)NC[C@H](O)CN3CCc4ccccc4C3)ccn2)C1 (stereo partly shown) [Compound 264]	< 100	–
O=C(NC[C@H](O)CN1CCc2ccccc2C1)c1ccnc(NCC2CNCCO2)c1 (stereo partly shown) [Compound 238]	< 100	–
O=C(NC[C@H](O)CN1CCc2ccccc2C1)Oc1ccccc1 [Compound 7]	–	IC50 (PRMT5/MEP50): 1000 to 10000 nM
O=C(NCC(O)CN1CCc2ccccc2C1)c1ccnc(NC2CCOCC2)c1 (stereo not shown) [Compound 74]	< 100	–
CS(=O)(=O)N1CCC(Nc2cccc(C(=O)NCC(O)CN3CCc4ccccc4C3)c2)CC1 (stereo not shown) [Compound 125]	< 100	–

Now from value to compound, other results behind:

IC50 (PRMT5/MEP50; [2]) [nM]	SMILES	also measured
< 100	CN1CCC(Oc2cccc(C(=O)NCC(O)CN3CCc4ccccc4C3)c2)C1 (stereo not shown) [Compound 134]	EC50 [1]: 101 to 1000 nM
< 100	CN1CCC(Oc2cccc(C(=O)NCC(O)CN3CCc4ccccc4C3)c2)C1 (stereo not shown) [Compound 120]	EC50 (Z-138 cell line): 1000 to 10000 nM; EC50 ([1]; Homo sapiens): 101 to 1000 nM
101 to 1000	NC(=O)CNCc1cccc(C(=O)NCC(O)CN2CCc3ccccc3C2)c1 (stereo not shown) [Compound 116]	–
< 100	O=C(NC[C@H](O)CN1CCc2ccccc2C1)c1ccccc1 [Compound 3, (S)—N-(3-(3,4-dihydroisoquinolin-2(1H)-yl)-2-hydroxypropyl)benzamide]	–
< 100	O=C(NC[C@H](O)CN1CCc2ccccc2C1)c1ccnc(NCc2ccccn2)c1 [Compound 191]	–
< 100	C[C@@H]1CC(Nc2cccc(C(=O)NC[C@H](O)CN3CCc4ccccc4C3)c2)CCO1 (stereo partly shown) [Compound 168]	–
< 100	O=C(NC[C@H](O)CN1CCc2ccccc2C1)c1csc2ccccc12 [Compound 248]	–
< 100	O=C(NC[C@H](O)CN1CCc2ccccc2C1)c1cccc(NC2CCOC2)c1 (stereo partly shown) [Compound 80]	–
101 to 1000	O=C(NCC(O)CN1CCc2ccccc2C1)c1ccc2c(c1)OCCN2 (stereo not shown) [Compound 88]	–
< 100	O=C(NCC(O)CN1CCc2ccccc2C1)c1ccc(CN2CCNCC2)cc1 (stereo not shown) [Compound 143]	–
101 to 1000	O=C(NCC(O)CN1CCc2ccccc2C1)c1ccc2nccnc2c1 (stereo not shown) [Compound 85]	–
< 100	CC(=O)N1CC[C@@H](Nc2cccc(C(=O)NC[C@H](O)CN3CCc4ccccc4C3)c2)C1 [Compound 293]	–
< 100	CN1CCCC1c1cccc(C(=O)NCC(O)CN2CCc3ccccc3C2)c1 (stereo not shown) [Compound 34, N-(3-(3,4-dihydroisoquinolin-2(1H)-yl)-2-hydroxypropyl)-3-(1-methylpyrrolidin-2-yl) benzamide]	–
< 100	CN(CC(N)=O)Cc1cccc(C(=O)NCC(O)CN2CCc3ccccc3C2)c1 (stereo not shown) [Compound 195]	–
1000 to 10000	O=C(NC[C@@H](O)CN1CCc2ccccc2C1)c1ccccc1 [Compound 4]	–
< 100	O=C(NC[C@H](O)CN1CCc2ccccc2C1)c1cc2cccc(Cl)c2[nH]1 [Compound 276]	–
< 100	O=C(NCC(O)CN1CCc2ccccc2C1)c1cccc(NC2CCOC2)c1 (stereo not shown) [Compound 45, N-(3-(3,4-dihydroisoquinolin-2(1H)-yl)-2-hydroxypropyl)-3-((tetrahydrofuran-3-yl)amino)benzamide]	–
< 100	Cc1ccc2cc(C(=O)NC[C@H](O)CN3CCc4ccccc4C3)ccc2n1 [Compound 221, (S)—N-(3-(3,4-dihydroisoquinolin-2(1H)-yl)-2-hydroxypropyl)-2-methylquinoline-6-carboxamide]	–
< 100	CCN1CCN(Cc2cccc(C(=O)NCC(O)CN3CCc4ccccc4C3)c2)CC1 (stereo not shown) [Compound 90]	–
< 100	CC(=O)N1CCC(Oc2cccc(C(=O)NCC(O)CN3CCc4ccccc4C3)c2)C1 (stereo not shown) [Compound 136]	–
< 100	CN(C)C(=O)CNCc1cccc(C(=O)NCC(O)CN2CCc3ccccc3C2)c1 (stereo not shown) [Compound 118]	–
< 100	CN1CCC(Nc2cccc(C(=O)NCC(O)CN3CCc4ccccc4C3)c2)CC1 (stereo not shown) [Compound 123]	–
1000 to 10000	O=C(NCC(O)CN1CCc2ccccc2C1)c1cccc(NCCCO)c1 (stereo not shown) [Compound 87]	–
< 100	O=C(NCC(O)CN1CCc2ccccc2C1)c1cccc(NC2CCNCC2)c1 (stereo not shown) [Compound 94]	–
< 100	O=C(NC[C@@H](O)CN1CCc2ccccc2C1)c1cccc(-c2ccccn2)c1 [Compound 19]	–
101 to 1000	O=C(NC[C@H](O)CN1CCc2ccccc2C1)c1cccc2ccccc12 [Compound 295]	–
< 100	CC(C)N1CCC(Oc2cccc(C(=O)NCC(O)CN3CCc4ccccc4C3)c2)C1 (stereo not shown) [Compound 135]	–
101 to 1000	O=C(NC[C@H](O)CN1CCc2ccccc2C1)c1ccc2[nH]nnc2c1 [Compound 305]	–
< 100	CS(=O)(=O)N1CCC(Oc2cccc(C(=O)NCC(O)CN3CCc4ccccc4C3)c2)C1 (stereo not shown) [Compound 162]	–
